This data set in a line: gradient 5% acetonitrile 3 min, to 50% in 2 min, to 85% in 15 min, held 3 min, 100 µL/min. The conditions noted are these: column: Zorbax Extend-C18 2.1 x 50 mm; eluents: water / acetonitrile, 0.1% formic acid. A digest of the protocol: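 The mobile phases were water and acetonitrile, each with 0.1% formic acid, pumped at 100 μL/min through a Zorbax Extend-C18 column (2.1 × 50 mm, 1.8 μm). Pure standards were injected as mixtures of ~100 molecules and detected by a quadrupole time-of-flight mass spectrometer in positive and negative ionization mode. Retention time came from computationally picked adduct peaks, each inspected by hand.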
Regarding `CCOC(=O)C1CCN(c2cc3c(cc2NC(=O)C2CC2)n(C)c(=O)c(=O)n3C)CC1`, the RP-LC retention time stood at 758 s.
For `O=C(Cc1nnc(-c2ccccc2)o1)NCc1ccncc1` the value was 566 s; for `CCc1noc(-c2c(S(=O)(=O)NC3CCCC3)c(C)n(C)c2C)n1`, 833 s.
As for `CC(=O)O[C@]1(C(C)=O)CC[C@H]2[C@@H]3CCC4=CC(=O)CCC4=C3[C@@H](c3ccc(N(C)C)cc3)C[C@@]21C`, the figure is 874 s; as for `COc1ccc(CCNC(=O)CN2C(=O)CCc3cc(Br)ccc32)cc1OC`, 800 s.
Consider `CCS(=O)(=O)N1CCCc2cc(C(=O)N3CCCCCC3)ccc21`, for which the RP-LC retention time was 824 s.
Regarding `Cc1ccc(NC(=O)Cn2nc3c(N4CCSCC4)nccn3c2=O)cc1C`, the RP-LC retention time turned out to be 839 s.
In the case of `CC(C)(C)c1noc(Cc2nnc(-c3ccc(F)cc3)o2)n1`, the RP-LC retention time was determined as 942 s.
For `CCCCc1ccc(NC(=O)N2CC(c3nc(C)no3)C3(CCOCC3)C2)cc1` (centres undefined) the value was 914 s.
For `CN1C(=O)c2cc(S(=O)(=O)Nc3ccc4c(c3)OCCO4)ccc2Oc2cccnc21` the value was 826 s; for `CC1CCN(S(=O)(=O)c2ccc3nc(N4CCN(c5ccccc5)CC4)ccc3c2)CC1`, 962 s; for `O=C(NCc1ccccc1F)C1CC(=O)N(c2ccc3c(c2)CCN3C(=O)C2CC2)C1` (centres undefined), 745 s.
As for `O=C1C(N2CCN(S(=O)(=O)c3cccs3)CC2)CCN1Cc1cccnc1` (centres undefined), the figure is 536 s; as for `COc1ccc2sc(Nc3nnc(-c4ccc5c(c4)OCCO5)o3)nc2c1`, 802 s; as for `O=C(COc1ccccc1F)Nc1ccc(Cl)c(N2CCCS2(=O)=O)c1`, 791 s.
In turn, `CCCNC(=O)C1CCCN(c2ccc(SCC(=O)NCc3ccc(F)cc3)nn2)C1` (centres undefined) came in with an RP-LC retention time of 652 s.
The compound `O=C(Cn1nc2c(N3CCCCCC3)nccn2c1=O)NCCC1=CCCCC1` gave an RP-LC retention time of 784 s.
As for `CCc1nc(-c2ccc(S(=O)(=O)N3CCC(C(=O)NC4CCCCC4)CC3)cc2)no1`, the figure is 954 s; as for `CCc1cc(=O)n(CC(=O)NCc2ccc(F)cc2)c(N)n1`, 793 s; as for `CCn1ccc2c(cc(C(=O)Nc3ccc(C)cc3)n2C)c1=O`, 769 s.
For `Cc1oc(C2CCN(C(=O)C3CCCN(S(=O)(=O)N4CCCC4)C3)CC2)nc1C(=O)N1CCCC1` (centres undefined) the value was 737 s; for `CC1=NOC(C)(CNC(=O)NC(C)(C)C)C1` (centres undefined), 627 s.
For `CN1C(=O)COc2ccc(-c3csc(NC(=O)c4cccc(Cl)c4)n3)cc21` the value was 1020 s.
On to `COc1ccc(NC(=O)C2CCCN(S(=O)(=O)c3c[nH]c(C(=O)N4CCCC4)c3)C2)cc1Cl` (centres undefined), for which the RP-LC retention time amounted to 819 s.
As for `O=C(Cn1nc(C(=O)N2CCCCC2)c2ccccc21)Nc1nc2ccc(Cl)cc2s1`, the figure is 969 s; as for `CCS(=O)(=O)Nc1ccc(C2(C(=O)N3CCCC(C)C3)CCCCC2)cc1` (centres undefined), 1010 s.
`CSc1ccc(NC(=O)N2C[C@@H]3C[C@H]2C[C@@H]3NS(=O)(=O)c2ccccc2)cc1` displayed an RP-LC retention time of 856 s.
`Cn1nccc1-c1cccc(-c2noc(CNC(=O)c3ccccc3)n2)c1` yielded an RP-LC retention time of 798 s.
Regarding `Cc1[nH]c2ccccc2c1C(=O)C(=O)N(C)Cc1ccccc1`, the RP-LC retention time was found to be 805 s.
Regarding `O=S(=O)(c1ccccc1Cl)N1CCCC1Cc1noc(-c2ccccc2)n1` (centres undefined), the RP-LC retention time was 1110 s.
As for `Cn1cc(-c2nc(C(=O)N3CCN(c4ccccc4F)CC3)cs2)c2cccnc21`, the figure is 956 s.
For `O=C(c1n[nH]c2c1CCCC2)N1CCN(c2ccc(=O)n(-c3ccc(Cl)cc3)n2)CC1`, the RP-LC retention time was found to be 758 s.
For `CCCCC(=O)Nc1ccc2nc(N3CCN(c4ccc(OC)cc4)CC3)cc(C(=O)O)c2c1` the value was 673 s; for `Clc1ccc(-c2csc(Nc3ccccc3)n2)cc1Cl`, 1300 s.
Regarding `Cc1ccccc1Cn1nc2c(S(=O)(=O)N3CCc4ccccc4C3)cccn2c1=O`, the RP-LC retention time was determined as 987 s.
The compound `CN1C(=O)CCSc2ccccc21` came in with an RP-LC retention time of 711 s.
As for `CCCN(CCC)c1nc(C(=O)OCC)nc2ccccc12`, the figure is 812 s; as for `Cc1ccc(C(=O)N2CCC3(CC2)N=C(c2ccc(C)cc2)NO3)cc1`, 858 s.
For `Cc1c(C(=O)NC2CC2)cnn1-c1ccc(-c2nc(C(C)(C)C)no2)cn1` the value was 947 s; for `COc1ccc(NC(=O)c2cnc3c(c2)c(=O)n(C)c(=O)n3C)cc1`, 732 s.
For `O=C(Cn1c(=O)c2cc(C3CC3)nn2c2ncccc21)NC1CCCC1` the value was 705 s.
`CCCCN(C)S(=O)(=O)c1c(C)nn(-c2ccc(-c3ccccc3)nn2)c1C` gave an RP-LC retention time of 1160 s.
`O=C(NCCc1c[nH]c2ccccc12)c1cc(-c2ccccn2)nc2ccccc12` came in with an RP-LC retention time of 868 s.
The compound `CC(C)n1cc(CN2CCC3(CC2)CN(Cc2ccccc2)CC3CO)cn1` (centres undefined) gave an RP-LC retention time of 524 s.
As for `Cc1noc(C)c1S(=O)(=O)N1CCC(C(C)C(=O)NCCc2c[nH]c3ccccc23)CC1` (centres undefined), the figure is 858 s.
For the compound `O=C1COc2cc(S(=O)(=O)N3CCCC3C(=O)NCc3ccc(F)cc3)c(Cl)cc2N1` (centres undefined), the RP-LC retention time turned out to be 745 s.
Consider `CSc1ccc(CNC(=O)Cn2cc(-c3nnc(C)o3)c3ccccc32)cc1`, for which the RP-LC retention time is 812 s.
As for `O=C(NCCn1nc(-n2cccn2)ccc1=O)c1cc2ccccc2o1`, the figure is 669 s.
`COC(=O)c1ncn2c1C(=O)N(Cc1ccccc1F)C(C)(C(=O)NC1CCCCCC1)C2` (centres undefined) returned an RP-LC retention time of 816 s.
As for `O=c1n(CCOc2ccc(F)cc2)nc2c(S(=O)(=O)N3CCCCC3)cccn12`, the figure is 894 s; as for `COC(=O)c1cc2n(n1)CC(C)(C(=O)NC1CCCCC1)N(c1cccc(F)c1)C2=O` (centres undefined), 737 s; as for `O=C(c1ccccc1C(F)(F)F)N1CCC2(C1)C(=O)Nc1ccccc12` (centres undefined), 743 s.
As for `COc1ccc(OC)c(CNC(=O)C2c3ccccc3C(=O)N3CCc4ccccc4C23)c1` (centres undefined), the figure is 867 s; as for `CC1(C(=O)NCc2ccccc2)CCCN(C(=O)Nc2ccc(Br)cc2)C1` (centres undefined), 980 s; as for `Cn1ncc2c3ccccc3n(CCCC(=O)NCc3ccccc3)c2c1=O`, 810 s.
Consider `CCOC(=O)COC(=O)c1cn(-c2ccc(C)cc2)c(=O)c2ccccc12`, for which the RP-LC retention time turned out to be 718 s.
In the case of `COc1cccc(-c2nnc3sc(CN4CCc5ccccc5C4)cn23)c1`, the RP-LC retention time stood at 582 s.
For `O=C(c1ccc2c(c1)OCO2)N1CCN(c2cc(-c3ccc(F)cc3)[nH]n2)CC1` the value was 772 s; for `Cc1cc(Nc2ccc(NC(=O)Cn3cnc4ccccc43)cc2)nc(N2CCCC2)n1`, 548 s.
Compound `CCCn1cc(CCNC(=O)Cc2cccc(Cl)c2)c2cccnc21` showed an RP-LC retention time of 799 s.
For `Cc1ccc(N2CCC(NC(=O)Cc3ccccc3C)C2=O)cc1C` (centres undefined) the value was 893 s; for `Cc1cc(C)n(Cc2ccc(C(=O)N3CCN(c4cc(=O)n(C)c(=O)n4C)CC3)o2)n1`, 629 s.
As for `CCn1cc(-c2nc(C(=O)Nc3cccc(OC)c3)cs2)c2cccnc21`, the figure is 1060 s; as for `COCCCNC(=O)C1CCCN(C(=O)c2cccc(C(F)(F)F)c2)C1` (centres undefined), 698 s.
Turning to `CC(C)C(=O)NCCC1CCN(C(=O)Nc2cc(F)ccc2F)CC1`, the RP-LC retention time was 742 s.
The compound `COc1ccc2c(c1)C1(CCN(S(=O)(=O)c3cccs3)C1)C(=O)N2C` (centres undefined) returned an RP-LC retention time of 871 s.
Take `COc1ccc(-n2c(=O)c(C(=O)Nc3ccc(F)cc3Cl)c(O)c3cccnc32)cc1`: the RP-LC retention time was found to be 1320 s.
As to `Cc1nnc(-c2cn(CC(=O)Nc3ccc(F)cc3F)c3ccccc23)o1`, the RP-LC retention time amounted to 747 s.
The compound `CC(NC(=O)C1CCN(C(=O)c2ncn3c2COC(c2ccc(F)cc2)C3)CC1)c1ccccc1` (centres undefined) registered an RP-LC retention time of 809 s.
As for `Cc1ccsc1C(=O)Nc1cccn2cnnc12`, the figure is 666 s; as for `COc1ccc2c(c1)c(CN1CCC(N3C[C@H](OC)[C@@H]3c3cccnc3)CC1)cn2C(C)C`, 596 s; as for `Cc1noc2nc(CCC(=O)NCc3ccccn3)nc(N3CC(C)CC(C)C3)c12` (centres undefined), 690 s.
As for `CN1CCN(C(=O)CN2C(=O)CCCc3cc(S(=O)(=O)N4CCCCCC4)ccc32)CC1`, the RP-LC retention time amounted to 632 s.
As for `CC(C)(C)NC(=O)Cc1cccn1-c1ccc(Cl)cc1`, the RP-LC retention time amounted to 994 s.
Turning to `O=C(Cc1ccsc1)N1CCC([C@@H]2CNC[C@H]2CO)CC1`, the RP-LC retention time came out at 568 s.
For `CCc1ccccc1S(=O)(=O)N1CCC(c2cc(N)on2)CC1` the value was 824 s; for `Cc1ccc(CNC(=O)C2CCN(C(=O)c3cc(-c4cccnc4)n[nH]3)CC2)o1`, 586 s.
With `CCOc1ccccc1NC(=O)c1cn(C)c2ncccc12`, the RP-LC retention time turned out to be 927 s.
For `Cc1nc(-c2noc(-c3ccncc3)n2)cn1CC(=O)NC1CCCCC1`, the RP-LC retention time amounted to 896 s.

The values above are taken from the METLIN SMRT retention time set (Domingo-Almenara et al. 2019).
